Source: ChEMBL document CHEMBL3259791, “Discovery of (E)-3-((styrylsulfonyl)methyl)pyridine and (E)-2-((styrylsulfonyl)methyl)pyridine derivatives as anticancer agents: synthesis, structure-activity relationships, and biological activities” (J Med Chem, 2014)
The source made the active and inactive calls. No cut-off for these calls is given here.

What was measured:
DU-145 [1] = experiment: Ratio of ON01910 IC50 to compound IC50 for AR negative human DU145 cells; type: functional
HCT-116 [2] = experiment: Ratio of ON01910 IC50 to compound IC50 for human HCT116 cells; type: functional
HeLa = experiment: Selectivity ratio of IC50 for human WI38 cells to IC50 for human HeLa cells; type: functional
PANC-1 [3] = experiment: Ratio of ON01910 IC50 to compound IC50 for human PANC1 cells; type: functional
WI-38 = experiment: Selectivity ratio of IC50 for human WI38 cells to IC50 for ER negative human MDA-MB-231 cells; type: functional
PANC-1 [4] = experiment: Selectivity ratio of IC50 for human WI38 cells to IC50 for human PANC1 cells; type: functional
DU-145 [5] = experiment: Selectivity ratio of IC50 for human WI38 cells to IC50 for AR negative human DU145 cells; type: functional
MCF7 = experiment: Ratio of ON01910 IC50 to compound IC50 for ER positive human MCF7 cells; type: functional
HCT-116 [6] = experiment: Selectivity ratio of IC50 for human WI38 cells to IC50 for human HCT116 cells; type: functional
MDA-MB-231 = experiment: Ratio of ON01910 IC50 to compound IC50 for ER negative human MDA-MB-231 cells; type: functional
[7] = Oral bioavailability (0 to infinity) in mouse at 40 mg/kg after 24 hrs; type: ADME, organism-based; details: in vivo
[8] = AUC (0 to t) in mouse at 10 mg/kg, po after 24 hrs; type: ADME, organism-based; parameters: time < 24 hr, dose 10 mg/kg, route oral; details: plasma
A2780 = experiment: Reduction in Mcl1 level in human A2780 cells at 1 uM after 24 hrs by Western blot analysis; type: functional, cell-based
[9] = Elimination half life in mouse at 10 mg/kg, po after 24 hrs; type: ADME, organism-based; parameters: dose 10 mg/kg, route oral; details: in vivo, read-out: beta t1/2 (converted)

SMILES | Ratio IC50 (DU-145 [1]) | Ratio IC50 (HCT-116 [2]) | Ratio IC50 (HeLa) | Ratio IC50 (PANC-1 [3]) | Ratio IC50 (WI-38) | Ratio IC50 (PANC-1 [4]) | Ratio IC50 (DU-145 [5]) | Ratio IC50 (MCF7) | Ratio IC50 (HCT-116 [6]) | Ratio IC50 (MDA-MB-231) | bioavailability [7] | AUC(0-t) at 24 h [8] | inhibition (A2780) | half-life [9]
COc1cc(OC)c(/C=C/S(=O)(=O)Cc2ccc(OC)c(N)n2)c(OC)c1 | 10 | 10 | >1400 | 10 | >1400 | >1400 | >1400 | 10 | >1400 | 10 | 68% | – | – | –
COc1cc(OC)c(/C=C/S(=O)(=O)Cc2ccc(OC)c(NS(C)(=O)=O)n2)c(OC)c1 | – | – | – | – | – | – | – | – | – | – | – | 5.6 µM·h | Active | 4.6 h
